Laboratory results taken from patent publication US20250154109A1, “SODIUM CHANNEL BLOCKING COMPOUNDS, DERIVATIVES THEREOF, AND METHODS OF THEIR USE” (LATIGO BIOTHERAPEUTICS, INC, priority 2022, published 2025).
Counter-ions that a name gives are not always drawn. Like-named read-outs stand apart in the source and are kept apart here. Each block holds one compound with its values, some of them ahead of it.

Molecular target: human Nav1.8 (Homo sapiens, UniProt Q9Y5Y9)
Experiment: SyncroPatch384PE assay (automated patch clamp)
Assay type: cell-based
Details: human Nav1.8/b3 CHO cells
Experimental: Compounds were tested on recombinant human Nav1.8/b3 stably transfected CHO cells using the SyncroPatch384PE system (Nanion Technologies), an automated patch clamp device. Cells were cultured at 37° C./5% CO2 in Ham's F-12 supplemented with 10% fetal bovine serum, 100 U/mL penicillin G sodium, […] streptomycin sulfate and selection antibiotics (0.01 mg/mL Blasticidin, 0.4 mg/mL Zeocin and 0.25 mg/mL Hygromycin). On the day of the recordings, cells in culture dishes were washed twice with Hank's Balanced Salt Solution (HBSS) and treated with Accutase for approximately 20 minutes. Immediately before use in the SynchroPatch384PE using an 8-hole NPC-384 chip, the cells were washed in HBSS to remove the Accutase and re-suspended in extracellular solution. All experiments were performed at ambient temperature. Intracellular solution contained (mM): CsCl, 50; CsF, 90; MgCl2, 5; EGTA, 1; HEPES, 10; pH adjusted to 7.2 with CsOH. Extracellular solution contained (mM): NaCl, 137; KCl, 4.0; CaCl2), 3.8; MgCl2, 1; HEPES, 10; Glucose, 10; pH adjusted to 7.4 with NaOH. 100 nM tetrodotoxin (TTX) was added to the extracellular solution to block endogenous TTX-sensitive sodium currents.
Compounds were tested in quadruplicate in 0.3% DMSO and 0.03% pluronic Acid. Compounds were diluted 1:3.33 in extracellular solution to create an 8-point concentration response curve. Each plate contained a historical positive control and up to ten compounds. 300 μM tetracaine and 0.3% DMSO+0.03% pluronic acid were used as high and low controls respectively.
Whole cell patch clamp recordings were conducted according to Nanion's standard procedure for SyncroPatch384PE®. Cells were held at a holding potential of −120 mV. A depolarization step to 10 mV for 30 ms was applied (P1 measurement), followed by a hyperpolarization step to −100 mV for 100 ms. An inactivation step at −35 mV for 10 sec was applied before stepping to −100 mV for 20 ms, followed by a step to 10 mV for 30 ms (P2 measurement) and then back to −100 mV for 30 ms. Sweep interval was 15 sec. Following establishment of the whole-cell configuration in extracellular solution, cells were washed in extracellular solution containing 0.3% DMSO and 0.03% pluronic acid to stabilize the baseline current. Compounds were then applied by the SynchroPatch384 PE system into each well and the current was recorded for five minutes in extracellular solution, followed by application of tetracaine to achieve full block at the end of experiment. The potency of the compounds was assessed on two read-outs, resting state block (P1 measurement) or inactivated state block (P2 measurement) to obtain IC50 values. Values were normalized to high (tetracaine) and low (DMSO+pluronic acid) controls.
Examples 1 to 219 and Examples 225 to 236 are assayed using SyncroPatch384PE assay described above.

[1] = inactivated state block (P2 measurement), read-out: P2 IC50
[2] = resting state block (P1 measurement), read-out: P1 IC50

Chain of human Nav1.8 (Q9Y5Y9 whole entry): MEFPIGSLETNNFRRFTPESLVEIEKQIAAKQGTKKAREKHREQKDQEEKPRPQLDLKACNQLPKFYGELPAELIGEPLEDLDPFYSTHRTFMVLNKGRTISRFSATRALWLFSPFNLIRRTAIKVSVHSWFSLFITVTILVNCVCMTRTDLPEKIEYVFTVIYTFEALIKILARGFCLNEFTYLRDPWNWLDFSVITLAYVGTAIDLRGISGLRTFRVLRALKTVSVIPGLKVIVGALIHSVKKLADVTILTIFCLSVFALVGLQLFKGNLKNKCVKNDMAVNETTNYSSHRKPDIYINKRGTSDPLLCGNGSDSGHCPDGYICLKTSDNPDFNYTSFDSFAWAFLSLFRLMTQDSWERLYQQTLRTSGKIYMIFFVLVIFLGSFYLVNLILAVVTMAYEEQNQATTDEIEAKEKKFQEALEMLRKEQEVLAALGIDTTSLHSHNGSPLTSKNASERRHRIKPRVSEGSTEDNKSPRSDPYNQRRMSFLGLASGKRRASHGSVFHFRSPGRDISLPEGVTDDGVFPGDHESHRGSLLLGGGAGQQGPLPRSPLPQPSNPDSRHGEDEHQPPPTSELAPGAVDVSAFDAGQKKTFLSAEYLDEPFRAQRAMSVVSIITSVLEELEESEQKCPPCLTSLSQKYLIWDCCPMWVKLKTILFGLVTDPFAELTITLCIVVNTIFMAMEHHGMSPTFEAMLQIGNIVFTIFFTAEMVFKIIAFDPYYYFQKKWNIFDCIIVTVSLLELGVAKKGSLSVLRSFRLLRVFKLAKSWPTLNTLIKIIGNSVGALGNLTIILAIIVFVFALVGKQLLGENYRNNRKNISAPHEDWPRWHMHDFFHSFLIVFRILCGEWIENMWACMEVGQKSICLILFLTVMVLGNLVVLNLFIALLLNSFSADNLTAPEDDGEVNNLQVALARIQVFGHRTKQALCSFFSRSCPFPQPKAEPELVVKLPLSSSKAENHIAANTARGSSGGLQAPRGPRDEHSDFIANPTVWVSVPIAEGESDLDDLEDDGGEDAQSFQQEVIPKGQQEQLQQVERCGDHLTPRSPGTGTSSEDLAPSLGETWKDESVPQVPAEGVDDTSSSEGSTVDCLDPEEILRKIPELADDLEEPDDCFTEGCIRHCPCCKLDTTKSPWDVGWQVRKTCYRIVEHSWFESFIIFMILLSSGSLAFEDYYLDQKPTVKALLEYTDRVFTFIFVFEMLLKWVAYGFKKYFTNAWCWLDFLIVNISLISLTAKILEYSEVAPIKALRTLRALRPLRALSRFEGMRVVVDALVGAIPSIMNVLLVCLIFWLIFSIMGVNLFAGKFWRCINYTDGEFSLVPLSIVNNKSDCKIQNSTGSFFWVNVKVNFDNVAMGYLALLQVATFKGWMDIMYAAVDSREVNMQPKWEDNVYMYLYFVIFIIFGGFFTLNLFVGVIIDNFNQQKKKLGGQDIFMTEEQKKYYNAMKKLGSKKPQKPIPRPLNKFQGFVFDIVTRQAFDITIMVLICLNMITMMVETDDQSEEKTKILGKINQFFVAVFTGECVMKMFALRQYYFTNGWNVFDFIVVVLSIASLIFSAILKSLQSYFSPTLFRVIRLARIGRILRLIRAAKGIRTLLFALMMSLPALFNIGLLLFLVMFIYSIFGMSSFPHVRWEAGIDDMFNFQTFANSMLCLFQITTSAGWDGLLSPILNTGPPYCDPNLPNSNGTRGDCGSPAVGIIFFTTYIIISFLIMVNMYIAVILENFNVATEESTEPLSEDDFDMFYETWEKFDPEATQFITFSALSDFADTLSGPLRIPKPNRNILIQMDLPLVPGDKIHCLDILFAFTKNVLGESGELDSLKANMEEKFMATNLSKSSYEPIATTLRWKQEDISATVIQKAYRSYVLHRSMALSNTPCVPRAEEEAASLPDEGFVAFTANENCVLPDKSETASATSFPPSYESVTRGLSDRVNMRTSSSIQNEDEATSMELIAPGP

SMILES: CNCC(=O)N=[S@](C)(=O)c1cccc(NC(=O)c2c(N3CCCC(F)(F)CC3)ncc(-c3cnn(C)c3)c2C)c1 [Example 46, (R)-2-(4,4-difluoroazepan-1-yl)-4-methyl-5-(1-methyl-1H-pyrazol-4-yl)-N-(3-(S-methyl-N-(methylglycyl)sulfonimidoyl)phenyl)nicotinamide]
IC50 [1]: 5 to 50 nM | IC50 [2]: 5 to 50 nM

SMILES: Cc1c(-c2ccc3c(c2)OCCO3)cnc(N2CCCC(F)(F)CC2)c1C(=O)Nc1cccc([S@](C)(=N)=O)c1 [Example 47, (R)-2-(4,4-difluoroazepan-1-yl)-5-(2,3-dihydrobenzo[b][1,4]dioxin-6-yl)-4-methyl-N-(3-(S-methylsulfonimidoyl)phenyl)nicotinamide]
IC50 [1]: 5 to 50 nM | IC50 [2]: 5 to 50 nM

SMILES: CNCC(=O)N=[S@](C)(=O)c1cccc(NC(=O)c2c(N3CCCC(F)(F)CC3)ncc(-c3ccc4c(c3)OCCO4)c2C)c1 [Example 48, (R)-2-(4,4-difluoroazepan-1-yl)-5-(2,3-dihydrobenzo[b][1,4]dioxin-6-yl)-4-methyl-N-(3-(S-methyl-N-(methylglycyl)sulfonimidoyl)phenyl)nicotinamide]
IC50 [1]: ≤ 5 nM | IC50 [2]: ≤ 5 nM

SMILES: Cc1c(-c2ccc(C#N)cc2)cnc(N2CCCC(F)(F)CC2)c1C(=O)Nc1cccc([S@](C)(=N)=O)c1 [Example 49, (R)-5-(4-cyanophenyl)-2-(4,4-difluoroazepan-1-yl)-4-methyl-N-(3-(S-methylsulfonimidoyl)phenyl)nicotinamide]
IC50 [1]: ≤ 5 nM | IC50 [2]: ≤ 5 nM

SMILES: CNCC(=O)N=[S@](C)(=O)c1cccc(NC(=O)c2c(N3CCCC(F)(F)CC3)ncc(-c3ccc(C#N)cc3)c2C)c1 [Example 50, (R)-5-(4-cyanophenyl)-2-(4,4-difluoroazepan-1-yl)-4-methyl-N-(3-(S-methyl-N-(methylglycyl)sulfonimidoyl)phenyl)nicotinamide]
IC50 [1]: ≤ 5 nM | IC50 [2]: ≤ 5 nM

SMILES: Cc1c(-c2cnn(C)c2)cnc(N2CCCC(F)(F)CC2)c1C(=O)Nc1cccc([S@@](C)(=O)=NC(=O)C2CNC2)c1 [Example 51, (R)-N-(3-(N-(azetidine-3-carbonyl)-S-methylsulfonimidoyl)phenyl)-2-(4,4-difluoroazepan-1-yl)-4-methyl-5-(1-methyl-1H-pyrazol-4-yl)nicotinamide formate]
IC50 [1]: 5 to 50 nM | IC50 [2]: 5 to 50 nM

SMILES: Cc1c(-c2cnn(C)c2)cnc(N2CCCC(F)(F)CC2)c1C(=O)Nc1cccc([S@@](C)(=O)=NC(=O)C(C)(C)N)c1 [Example 52, (R)-N-(3-(N-(2-amino-2-methylpropanoyl)-S-methylsulfonimidoyl)phenyl)-2-(4,4-difluoroazepan-1-yl)-4-methyl-5-(1-methyl-1H-pyrazol-4-yl)nicotinamide formate]
IC50 [1]: 5 to 50 nM | IC50 [2]: 5 to 50 nM

SMILES: Cc1c(-c2cnn(C)c2)cnc(N2CCCC(F)(F)CC2)c1C(=O)Nc1cccc([S@@](C)(=O)=NC(=O)C2(N)CC2)c1 [Example 53, (R)-N-(3-(N-(1-aminocyclopropane-1-carbonyl)-S-methylsulfonimidoyl)phenyl)-2-(4,4-difluoroazepan-1-yl)-4-methyl-5-(1-methyl-1H-pyrazol-4-yl)nicotinamide formate]
IC50 [1]: 5 to 50 nM | IC50 [2]: 5 to 50 nM

SMILES: Cc1c(-c2cnn(C)c2)cnc(N2CCCC(F)(F)CC2)c1C(=O)Nc1cccc([S@@](C)(=O)=NC(=O)C2COC2)c1 [Example 54, (R)-2-(4,4-difluoroazepan-1-yl)-4-methyl-5-(1-methyl-1H-pyrazol-4-yl)-N-(3-(S-methyl-N-(oxetane-3-carbonyl)sulfonimidoyl)phenyl)nicotinamide]
IC50 [1]: 5 to 50 nM | IC50 [2]: 5 to 50 nM

SMILES: Cc1c(-c2ccc(C#N)cc2)cnc(N2CCCC(F)(F)CC2)c1C(=O)Nc1cccc([S@@](C)(=O)=NC(=O)C(C)(C)N)c1 [Example 55, (R)-N-(3-(N-(2-amino-2-methylpropanoyl)-S-methylsulfonimidoyl)phenyl)-5-(4-cyanophenyl)-2-(4,4-difluoroazepan-1-yl)-4-methylnicotinamide]
IC50 [1]: ≤ 5 nM | IC50 [2]: ≤ 5 nM

SMILES: Cc1c(C#N)c(C(F)(F)F)nc(N2CCCC(F)(F)CC2)c1C(=O)Nc1cccc([S@](C)(=N)=O)c1 [Example 56, (R)-5-cyano-2-(4,4-difluoroazepan-1-yl)-4-methyl-N-(3-(S-methylsulfonimidoyl)phenyl)-6-(trifluoromethyl)nicotinamide]
IC50 [1]: ≤ 5 nM | IC50 [2]: ≤ 5 nM

SMILES: Cc1c(C#N)c(C(F)(F)F)nc(N2CCCC(F)(F)CC2)c1C(=O)Nc1cccc([S@@](C)(=O)=NC(=O)C2CNC2)c1 [Example 57, (R)-N-(3-(N-(azetidine-3-carbonyl)-S-methylsulfonimidoyl)phenyl)-5-cyano-2-(4,4-difluoroazepan-1-yl)-4-methyl-6-(trifluoromethyl)nicotinamide formate]
IC50 [1]: ≤ 5 nM | IC50 [2]: ≤ 5 nM

SMILES: Cc1c(C#N)c(C(F)(F)F)nc(N2CCCC(F)(F)CC2)c1C(=O)Nc1cccc([S@@](C)(=O)=NC(=O)CCN)c1 [Example 58, (R)-N-(3-(N-(3-aminopropanoyl)-S-methylsulfonimidoyl)phenyl)-5-cyano-2-(4,4-difluoroazepan-1-yl)-4-methyl-6-(trifluoromethyl)nicotinamide formate]
IC50 [1]: ≤ 5 nM | IC50 [2]: ≤ 5 nM

SMILES: Cc1c(-c2ccc(F)c(F)c2)cnc(N2CCCC(F)(F)CC2)c1C(=O)Nc1cccc([S@](C)(=N)=O)c1 [Example 59, (R)-2-(4,4-difluoroazepan-1-yl)-5-(3,4-difluorophenyl)-4-methyl-N-(3-(S-methylsulfonimidoyl)phenyl)nicotinamide]
IC50 [1]: ≤ 5 nM | IC50 [2]: ≤ 5 nM

Second part, the compound after the results:

IC50 [1]: ≤ 5 nM | IC50 [2]: ≤ 5 nM
SMILES: CNCC(=O)N=[S@](C)(=O)c1cccc(NC(=O)c2c(N3CCCC(F)(F)CC3)ncc(-c3ccc(F)c(F)c3)c2C)c1 [Example 60, (R)-2-(4,4-difluoroazepan-1-yl)-5-(3,4-difluorophenyl)-4-methyl-N-(3-(S-methyl-N-(methylglycyl)sulfonimidoyl)phenyl)nicotinamide]

IC50 [1]: ≤ 5 nM | IC50 [2]: ≤ 5 nM
SMILES: Cc1c(-c2cc(F)cc(F)c2)cnc(N2CCCC(F)(F)CC2)c1C(=O)Nc1cccc([S@](C)(=N)=O)c1 [Example 61, (R)-2-(4,4-difluoroazepan-1-yl)-5-(3,5-difluorophenyl)-4-methyl-N-(3-(S-methylsulfonimidoyl)phenyl)nicotinamide]

IC50 [1]: ≤ 5 nM | IC50 [2]: ≤ 5 nM
SMILES: CNCC(=O)N=[S@](C)(=O)c1cccc(NC(=O)c2c(N3CCCC(F)(F)CC3)ncc(-c3cc(F)cc(F)c3)c2C)c1 [Example 62, (R)-2-(4,4-difluoroazepan-1-yl)-5-(3,5-difluorophenyl)-4-methyl-N-(3-(S-methyl-N-(methylglycyl)sulfonimidoyl)phenyl)nicotinamide]

IC50 [1]: ≤ 5 nM | IC50 [2]: ≤ 5 nM
SMILES: Cc1c(C#CC2CC2)cnc(N2CCCC(F)(F)CC2)c1C(=O)Nc1cccc([S@](C)(=N)=O)c1 [Example 63, (R)-5-(cyclopropylethynyl)-2-(4,4-difluoroazepan-1-yl)-4-methyl-N-(3-(S-methylsulfonimidoyl)phenyl)nicotinamide]

IC50 [1]: ≤ 5 nM | IC50 [2]: ≤ 5 nM
SMILES: CNCC(=O)N=[S@](C)(=O)c1cccc(NC(=O)c2c(N3CCCC(F)(F)CC3)ncc(C#CC3CC3)c2C)c1 [Example 64, (R)-5-(cyclopropylethynyl)-2-(4,4-difluoroazepan-1-yl)-4-methyl-N-(3-(S-methyl-N-(methylglycyl)sulfonimidoyl)phenyl)nicotinamide]

IC50 [1]: ≤ 5 nM | IC50 [2]: ≤ 5 nM
SMILES: CNCC(=O)N=[S@](C)(=O)c1cccc(NC(=O)c2c(N3CCCC(F)(F)CC3)nc(C(F)(F)F)c(C#N)c2C)c1 [Example 65, (R)-5-cyano-2-(4,4-difluoroazepan-1-yl)-4-methyl-N-(3-(S-methyl-N-(methylglycyl)sulfonimidoyl)phenyl)-6-(trifluoromethyl)nicotinamide]

IC50 [1]: ≤ 5 nM | IC50 [2]: ≤ 5 nM
SMILES: Cc1c(C#N)c(C(F)(F)F)nc(N2CCCC(F)(F)CC2)c1C(=O)Nc1cccc([S@@](C)(=O)=NC(=O)C2(N)CC2)c1 [Example 66, (R)-N-(3-(N-(1-aminocyclopropane-1-carbonyl)-S-methylsulfonimidoyl)phenyl)-5-cyano-2-(4,4-difluoroazepan-1-yl)-4-methyl-6-(trifluoromethyl)nicotinamide]
